Test: Multi-dose plasma PK of PBA, GPB vs. BUPHENYL (NaPB), TID, fed
Assay type: in vivo, human
Settings: GPB avg. dose 13.5 TID, N = 44, arithmetic mean

- Plasma PBA AUC0-24: 443 µg·h/mL
- Plasma PBA Cmax: 51.9 µg/mL
- Plasma PBA Tmax: 8.0 h
SMILES: O=C(CCCc1ccccc1)OCC(COC(=O)CCCc1ccccc1)OC(=O)CCCc1ccccc1 [GPB, glycerol phenylbutyrate]
